Measured values as given in patent US20080090805A1, “CB-1 MODULATING COMPOUNDS AND THEIR USE” (ACADIA PHARMACEUTICALS INC., priority 2005, published 2008).
Read-outs that look alike come from different tables or passages of the source.

Target: CB1 (mutant) (Homo sapiens, UniProt P21554)
Experiment: R-SAT functional receptor assay, CB1 (mutant, truncated after amino acid 417)
Type: cell-based
Settings: R-SAT CB1
[1] = Appendix A, receptor form (mutant or wild-type) not stated, read-out: pIC50 (converted)
[2] = Appendix A, receptor form not stated, relative to SR141716 (100%), read-out: % Inhibition
[3] = pIC50, Appendix A, receptor form (mutant or wild-type) not stated

CB1 (mutant), sequence (P21554 1-417, change not shown): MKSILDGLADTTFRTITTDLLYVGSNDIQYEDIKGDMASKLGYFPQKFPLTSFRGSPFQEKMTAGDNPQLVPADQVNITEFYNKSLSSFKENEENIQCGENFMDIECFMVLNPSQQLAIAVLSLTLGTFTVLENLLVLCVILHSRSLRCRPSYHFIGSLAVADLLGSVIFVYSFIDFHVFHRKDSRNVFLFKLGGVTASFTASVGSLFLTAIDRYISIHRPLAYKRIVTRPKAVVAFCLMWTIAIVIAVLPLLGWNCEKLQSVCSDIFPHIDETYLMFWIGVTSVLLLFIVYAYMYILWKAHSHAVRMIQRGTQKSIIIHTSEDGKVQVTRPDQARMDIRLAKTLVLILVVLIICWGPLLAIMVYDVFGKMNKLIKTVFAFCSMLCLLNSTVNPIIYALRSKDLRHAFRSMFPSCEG

SMILES	IC50 [1]	Emax [2]	further results
CCCCC1=Nc2cc(C(=O)NC)ccc2Sc2ccccc21	50.1 nM	55%	
CCCCNC(=O)c1ccc2c(c1)N=C(c1ccc(Cl)cc1)c1ccccc1S2(=O)=O	63.1 nM	106%	
O=C(NCc1cccnc1)c1ccc2c(c1)N=C(c1cccc(Br)c1)c1ccccc1S2 [drawing 895]	15.8 nM	105%	
COCCNC(=O)c1ccc2c(c1)N=C(c1ccc(Cl)cc1F)c1ccccc1S2	63.1 nM	104%	
CCCC1=Nc2cc(C(=O)NCCCN3CCCCC3CC)ccc2Sc2ccccc21 (stereo not drawn)		128%	
O=C(NCc1cccs1)c1ccc2c(c1)N=C(c1ccc(Cl)cc1)c1ccccc1S2 [drawing 751]	7.94 nM	107%	
O=C(NCCC(F)(F)F)c1ccc2c(c1)N=C(c1ccc(Cl)s1)c1ccccc1S2 [drawing 663]	6.31 nM	95%	
CC(CNC(=O)c1ccc2c(c1)N=C(c1cccc(Cl)c1)c1ccccc1S2)c1ccccc1 (stereo not drawn) [drawing 587]	3.16 nM	112%	
Cc1csc(CNC(=O)c2ccc3c(c2)N=C(c2sccc2C)c2ccccc2S3)c1 [drawing 661]	6.31 nM	102%	
O=C(NCCc1ccc(Cl)cc1)c1ccc2c(c1)N=C(c1ccc(Cl)cc1)c1ccccc1S2 [drawing 631]	5.01 nM	104%	
COc1ccc(C2=Nc3cc(C(=O)NCc4ccccn4)ccc3Sc3ccccc32)cc1	63.1 nM	93%	
CCCC1=Nc2cc(C(=O)NCCCN(CC(C)C)CC(C)C)ccc2Sc2ccccc21	63.1 nM	103%	
O=C(NCc1cccc(Cl)c1)c1ccc2c(c1)N=C(c1ccc(F)cc1)c1ccccc1S2 [drawing 747]			pIC50 (Appendix A, receptor form (mutant or wild-type) not stated): 8.1; % Inhibition (Appendix A, receptor form not stated, relative to SR141716 (100%)): 106%
O=C(NCCc1ccncc1)c1ccc2c(c1)N=C(c1ccc(Cl)cc1)c1ccccc1S2 [drawing 1135]	39.8 nM	116%	
CCONC(=O)c1ccc2c(c1)N=C(c1ccc(F)cc1)c1ccccc1S2	63.1 nM	98%	
CCOC(=O)c1ccc(C2=Nc3cc(C(=O)NCc4ccccn4)ccc3Sc3ccccc32)cc1 [drawing 874]	200 nM	100%	
O=C(NCc1ccco1)c1ccc2c(c1)N=C(c1ccc(Cl)s1)c1ccccc1S2 [drawing 621]	3.98 nM	118%	
O=C(NCCc1ccccc1)c1ccc2c(c1)N=C(c1ccc(Cl)cc1)c1ccccc1S2 [drawing 743]	7.94 nM	110%	
CCN(CCNC(=O)c1ccc2c(c1)N=C(c1ccccc1F)c1ccccc1S2)c1ccccc1 [drawing 1117]	39.8 nM	100%	
CCCCNC(=O)c1ccc2c(c1)N=C(c1ccc(Cl)cc1)c1cc(F)ccc1S2 [drawing 1111]	39.8 nM	98%	
O=C(NCc1ccccn1)c1ccc2c(c1)N=C(c1ccc(Br)cc1)c1ccccc1S2 [drawing 612]	50.1 nM	90%	
O=C(NCCc1ccccn1)c1ccc2c(c1)N=C(c1ccc(Cl)c(Cl)c1)c1ccccc1S2 [drawing 1077]	31.6 nM	93%	
O=C(NN1CCCCCC1)c1ccc2c(c1)N=C(c1sccc1Cl)c1ccccc1S2		82%	IC50 [3]: 20 nM
CCCCNC(=O)c1ccc2c(c1)N=C(c1cccc(F)c1)c1ccccc1S2 [drawing 719]	7.94 nM	113%	
O=C(NCCCc1ccccc1)c1ccc2c(c1)N=C(c1cccc(Cl)c1)c1ccccc1S2 [drawing 615]	3.98 nM	110%	
CCCCN(C)C(=O)c1ccc2c(c1)N=C(c1ccccn1)c1ccccc1S2	1000 nM	57%	

SMILES	IC50 [1]	Emax [2]	further results
CCCCNC(=O)c1ccc2c(c1)N=C(c1ccc(Cl)s1)c1ccc(Cl)cc1S2 [drawing 1109]	39.8 nM	104%	
O=C(NCc1ccccc1Cl)c1ccc2c(c1)N=C(C1CCCCC1)c1ccccc1S2 [drawing 1059]	31.6 nM	91%	
Cc1ccsc1C1=Nc2cc(C(=O)NC3CCC(F)(F)CC3)ccc2Sc2ccccc21 [drawing 620]		76%	IC50 [3]: 63.1 nM
O=C(NCCc1cccnc1)c1ccc2c(c1)N=C(c1ccc(Cl)cc1)c1ccccc1S2 [drawing 638]	63.1 nM	116%	
O=C(NCc1cccnc1)c1ccc2c(c1)N=C(c1ccccc1F)c1ccccc1S2 [drawing 1035]	25.1 nM	114%	
CCOCCNC(=O)c1ccc2c(c1)N=C(c1ccc(C#N)cc1)c1ccccc1S2 [drawing 788]	100 nM	74%	
O=C(NCc1cccc(Cl)c1)c1ccc2c(c1)N=C(C1CCCCC1)c1ccccc1S2 [drawing 637]	5.01 nM	112%	
O=C(NCc1ccc(Cl)cc1Cl)c1ccc2c(c1)N=C(C1CCCCC1)c1ccccc1S2	31.6 nM	90%	
CONC(=O)c1ccc2c(c1)N=C(c1cccc(F)c1)c1ccccc1S2	1000 nM	67%	
CCONC(=O)c1ccc2c(c1)N=C(c1ccccc1F)c1ccccc1S2	398 nM	73%	
O=C(NCc1cccc(Cl)c1)c1ccc2c(c1)N=C(c1ccc(Cl)cc1)c1cc(F)ccc1S2 [drawing 837]	12.6 nM	110%	
O=C(NNCc1ccccc1)c1ccc2c(c1)N=C(c1ccc(Cl)cc1)c1ccccc1S2	200 nM	66%	
COc1ccc(C2=Nc3cc(C(=O)NCc4ccncc4)ccc3Sc3ccccc32)cc1 [drawing 728]	79.4 nM	105%	
CCOC(=O)N1CCC(NC(=O)c2ccc3c(c2)N=C(c2ccc(Cl)cc2)c2ccccc2S3)CC1 [drawing 1101]	31.6 nM	109%	
CC(C)CNC(=O)c1ccc2c(c1)N=C(c1cccc(Cl)c1)c1ccccc1S2 [drawing 609]	3.98 nM		Emax (read-out: % Inhibition, Appendix A, receptor form not stated, relative to SR141716 (100%)): 116%
CC(CNC(=O)c1ccc2c(c1)N=C(c1ccccc1)c1ccccc1S2)c1ccccc1 (stereo not drawn) [drawing 729]	7.94 nM	101%	
CC(C)CNC(=O)c1ccc2c(c1)N=C(c1ccc(Cl)cn1)c1ccc(Cl)cc1S2 [drawing 1172]		27%	
CCOC(=O)c1ccc(C2=Nc3cc(C(=O)NCc4cccnc4)ccc3Sc3ccccc32)cc1 [drawing 850]	158 nM	73%	
C[C@@H]1CCC[C@H](C)N1NC(=O)c1ccc2c(c1)N=C(c1cccc(Cl)c1)c1ccccc1S2 [drawing 847]		100%	IC50 [3]: 12.6 nM
O=C(NCCc1ccncc1)c1ccc2c(c1)N=C(c1ccc(F)cc1)c1ccccc1S2 [drawing 1031]	25.1 nM	94%	
CCCCN(C)C(=O)c1ccc2c(c1)N=C(c1ccc(Cl)cc1)c1ccccc1S2	63.1 nM	92%	
O=C(NCCCc1ccccc1)c1ccc2c(c1)N=C(c1ccccc1F)c1ccccc1S2 [drawing 935]	20 nM	106%	
O=C(NCc1ccc(Cl)cc1Cl)c1ccc2c(c1)N=C(c1ccccc1F)c1ccccc1S2 [drawing 568]	50.1 nM	85%	
O=C(NN1CCCCCC1)c1ccc2c(c1)N=C(c1ccc(Cl)s1)c1ccccc1S2 [drawing 797]	10 nM	105%	
O=C(NC1CCCC1)c1ccc2c(c1)N=C(c1ccc(Cl)cc1)c1ccccc1S2 [drawing 782]	100 nM	105%	
CCOCCNC(=O)c1ccc2c(c1)N=C(c1ccc(OC)cc1)c1ccccc1S2	79.4 nM	90%	
